From US12521393B2, “Cytotoxicity targeting chimeras for CCR2-expressing cells” (GLAXOSMITHKLINE INTELLECTUAL PROPERTY DEVELOPMENT LIMITED, priority 2021, dated 2026)
Values joined by “and” are separate entries in the source; they are usually repeats but may differ in a detail not shown here. Equal values may be shown once.

What was measured:
[1] = Alternative dosing strategy (Example 206): blood concentration of small molecule ARM compound; assay type: in vivo; conditions: co-dosed vs sequentially dosed intravenously with anti-cotinine antibody
From the text: FIG. 5: Alternative dosing strategy of small molecule ARM compound to anti-cotinine antibody, as described in Example 206, with anti-cotinine antibody administered intravenously and ARM compound (Example 1) administered subcutaneously following a 2-hour delay from antibody dosing at various molar ratios of small molecule ARM: antibody; data shown is blood concentration of small molecule ARM compound at various timepoints following administration.

CCR2+ expressing cells = test: Alternative dosing strategy (Example 206): percent depletion of CCR2+ expressing cells by flow cytometry; assay type: in vivo; conditions: co-dosed vs sequentially dosed intravenously with anti-cotinine antibody
[2] = target: anti-cotinine antibody (SEQ ID NO: 9/10, humanized version); test: SPR binding of anti-cotinine antibody to ARM compounds, Biacore 8k, 25° C., humanized antibody (Example 202)
From the text: (§1) Anti-cotinine antibodies having a heavy chain sequence of SEQ ID NO: 9 and a light chain sequence of SEQ ID NO: 10 (humanized version) or a heavy chain sequence of SEQ ID NO: 11 and a light chain sequence of SEQ ID NO: 12 (rabbit version) were captured via the Fc domain to a protein A or A/G surface on flow cell 2 of a CMS sensor chip using the Biacore 8k.
(§2) After antibody capture, a 1500 second wait step was included to reduce drift in the binding step. ARM compounds of Formula (I) were then flowed over the captured antibodies at varying top concentrations ranging from 250 nM to 4 μM (see Table 6 below for top concentration values). The top concentration was diluted 4-fold over 5 dilutions (with a 0 nM compound cycle included to blank subtract the data). Association and dissociation times of the ARMs compounds of Formula (I) varied between experiments as follows and indicated in Table 6 below: reference 1-association for 600 seconds and dissociation for 1200 seconds at 20 μl/min; reference 2-association for 240 seconds and dissociation for 300 seconds at 30 μl/min; reference 3-association for 360 seconds and dissociation for 600 seconds at 30 μl/min. Anti-cotinine antibody bound to the protein A or A/G surface was regenerated using 50 mM NaOH. Experiments were run at 25° C. at pH 7.4 using HBS-EP+ buffer using Biacore 8K control software and evaluated using Biacore Insight Evaluation software. Curves were fit with the 1:1 kinetic fit inherent to the software, utilising a local Rmax and local drift setting.
(§3) Anti-cotinine antibody was tested for binding to ARMs compounds of Formula (I) of the invention in the above assay in or more experimental runs and the results are shown in Table 6 below. Affinity is reported as a pKd value. The pKd value is the negative log of the Kd value, wherein the Kd value is the dissociation constant measured in molar (M) as noted above. For compounds tested in more than one experimental run, the pKd value is reported as an average.

[3] = system: anti-cotinine antibody (SEQ ID NO: 11/12, rabbit version); test: SPR binding of anti-cotinine antibody to ARM compounds, Biacore 8k, 25° C., rabbit antibody (Example 202)
From the text: as §1, §2, §3

[4] = time reference 3 (association 360 s, dissociation 600 s, 30 μl/min)

SMILES | PK (blood concentration of small molecule ARM compound) [1] | PD (percent depletion of CCR2+ expressing cells) (CCR2+ expressing cells) | kd ([2]; time reference 1 (association 600 s, dissociation 1200 s, 20 μl/min)) | ka [2, 4] | kd [2, 4] | pKd [2, 4] | ka [3, 4] | kd [3, 4] | pKd [3, 4] | pKd ([3]; time reference 2 (association 240 s, dissociation 300 s, 30 μl/min))
CC(C)N(C)[C@@H]1CC[C@H](N2CC[C@H](Nc3ncnc4ccc(C(F)(F)F)cc34)C2=O)[C@H](NC(=O)[C@H]2CC[C@H](NC(=O)CCCO[C@H]3CC[C@H](OCCNC(=O)[C@H]4CC(=O)N(C)[C@@H]4c4cccnc4)CC3)CC2)C1 [Example 1, (2S,3S)-N-(2-(((1R,4S)-4-(4-(((1R,4R)-4-(((1R,2S,5R)-5-(Isopropyl(methyl)amino)-2-((S)-2-oxo-3-((6-(trifluoromethyl)quinazolin-4-yl)amino)pyrrolidin-1-yl)cyclohexyl)carbamoyl)cyclohexyl)amino)-4-oxobutoxy)cyclohexyl)oxy)ethyl)-1-methyl-5-oxo-2-(pyridin-3-yl)pyrrolidine-3-carboxamide] | unchanged | unchanged | 0.000456 s⁻¹ and 0.000649 s⁻¹ | 1.64e+06 M⁻¹ s⁻¹ | 0.000414 s⁻¹ | 9.6 | 5.57e+06 M⁻¹ s⁻¹ | 0.000156 s⁻¹ | 10.55 | –
CN1C(=O)C[C@H](C(=O)NCCO[C@H]2CC[C@H](OCCCC(=O)N[C@H]3CC[C@H](C(=O)N[C@@H]4C[C@H](NC(C)(C)C)CC[C@@H]4N4CC[C@H](Nc5ncnc6ccc(C(F)(F)F)cc56)C4=O)CC3)CC2)[C@H]1c1cccnc1 [Example 10, (2S,3S)-N-(2-(((1R,4S)-4-(4-(((1R,4R)-4-(((1R,2S,5R)-5-(tert-Butylamino)-2-((S)-2-oxo-3-((6-(trifluoromethyl)quinazolin-4-yl)amino)pyrrolidin-1-yl)cyclohexyl)carbamoyl)cyclohexyl)amino)-4-oxobutoxy)cyclohexyl)oxy)ethyl)-1-methyl-5-oxo-2-(pyridin-3-yl)pyrrolidine-3-carboxamide] | – | – | – | 1.42e+06 M⁻¹ s⁻¹ | 0.000484 s⁻¹ | 9.47 | – | – | kd outside | Poor fit
